# Results: patent US10611740B2, “Aryl dihydro-2H-benzo[b][1,4]oxazine sulfonamide and related compounds for use as agonists of RORγ and the treatment of disease” (Lycera Corporation, priority 2015, dated 2020)
# What was measured:
# [1] = molecular target: T1, Gal4-RORγ-LBD (Homo sapiens, UniProt P51449); assay: Gal4-RORγ Luciferase Reporter Assay in HEK-293T Cells; type: cell-based; conditions: HEK-293 cells, luciferase reporter, with 2 μM ursolic acid
# T1 construct: expressed in transfected cells; host or cells: HEK-293 cells (pcDNA3.1neo plasmid)
# T1 sequence (P51449 269-508 limits assumed): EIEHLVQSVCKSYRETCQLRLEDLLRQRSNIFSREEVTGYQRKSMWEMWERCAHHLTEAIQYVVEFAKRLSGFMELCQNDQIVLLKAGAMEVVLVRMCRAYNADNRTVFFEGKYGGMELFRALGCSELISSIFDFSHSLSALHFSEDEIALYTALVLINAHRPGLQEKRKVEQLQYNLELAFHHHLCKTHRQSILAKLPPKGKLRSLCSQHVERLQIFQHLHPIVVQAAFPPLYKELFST
# In short: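 HEK-293 cells were transiently co-transfected with Gal4-RORγ-LBD and pGL4.31 Gal4-luciferase, with ursolic acid added at 2 μM final. Compounds were incubated overnight at 37° C. in 0.2% DMSO and luminescence read with One-Glo. Max Response is the upper plateau of a 4-parameter logistic fit, with signal lacking ursolic acid or compound set to 100.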
# [2] = molecular target: T2, RORγ-LBD (Homo sapiens, UniProt P51449); assay: RORγ-Ligand Binding Domain (LBD) TR-FRET Assay; type: biochemical;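 on TR-FRET Assay Max Response: 665/615 nm ratio relative to signal without ursolic acid or compound set at 100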
# T2 construct: made in house; host or cells: SF9 cells (baculovirus)
# T2 sequence (P51449 269-508 limits assumed): T1 sequence (P51449 269-508 limits assumed)
# In short: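 Compounds, diluted in DMSO and then in assay buffer (1% DMSO final), were combined with His-tagged RORγ-LBD lysate at roughly 3 nM final and a 200 nM biotinylated SRC1 LXXLL peptide. Ursolic acid was included at 2 μM final. Coactivator recruitment was detected by TR-FRET.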
Compound,EC50 [1] [nM],EC50 [2] [nM],Gal4-RORγ Assay Max Response [1],TR-FRET Assay Max Response [2]
"O=C(O)CC[C@H]1CN(S(=O)(=O)c2cccc(C(F)(F)F)c2)c2cc(-c3ncc(C(F)(F)F)s3)ccc2O1 [Compound 4H, (S)-3-(4-((3-(trifluoromethyl)-phenyl)sulfonyl)-6-(5-(trifluoromethyl)thiazol-2-yl)-3,4-dihydro-2H-benzo[b][1,4]oxazin-2-yl)propanoic acid]",500 to 5000,< 500,* (The symbol “*” indicates a value in the range of 25 to 90),*** (The symbol “***” indicates a value in the range of greater than 150 to 200)
"O=C(O)CC[C@H]1CN(S(=O)(=O)c2cccc(C(F)(F)F)c2)c2cc(-c3cccc(Cl)n3)ccc2O1 [Compound 4I, (S)-3-(6-(6-chloropyridin-2-yl)-4-((3-(trifluoromethyl)phenyl)-sulfonyl)-3,4-dihydro-2H-benzo[b][1,4]oxazin-2-yl)propanoic acid]",< 500,< 500,** (The symbol “**” indicates a value in the range of greater than 90 to 150),*** (The symbol “***” indicates a value in the range of greater than 150 to 200)
"O=C(O)CC[C@H]1CN(S(=O)(=O)c2cccc(C(F)(F)F)c2)c2cc(-c3cccn4ccnc34)ccc2O1 [Compound 4J, (S)-3-(6-(imidazo[1,2-a]pyridin-8-yl)-4-((3-(trifluoromethyl)-phenyl)sulfonyl)-3,4-dihydro-2H-benzo[b][1,4]oxazin-2-yl)propanoic acid]",500 to 5000,< 500,** (The symbol “**” indicates a value in the range of greater than 90 to 150),**** (The symbol “****” indicates a value greater than 200)
"O=C(O)CC[C@H]1CN(S(=O)(=O)c2cccc(C(F)(F)F)c2)c2cc(-c3ncc4ccccn34)ccc2O1 [Compound 4N, (S)-3-(6-(imidazo[1,5-a]pyridin-3-yl)-4-((3-(trifluoromethyl)-phenyl)sulfonyl)-3,4-dihydro-2H-benzo[b][1,4]oxazin-2-yl)propanoic acid]",500 to 5000,< 500,** (The symbol “**” indicates a value in the range of greater than 90 to 150),**** (The symbol “****” indicates a value greater than 200)
"O=C(O)CC[C@H]1CN(S(=O)(=O)c2cccc(C(F)(F)F)c2)c2cc(-c3cnn4ccccc34)ccc2O1 [Compound 4O, (S)-3-(6-(pyrazolo[1,5-a]pyridin-3-yl)-4-((3-(trifluoromethyl)-phenyl)sulfonyl)-3,4-dihydro-2H-benzo[b][1,4]oxazin-2-yl)propanoic acid]",500 to 5000,< 500,** (The symbol “**” indicates a value in the range of greater than 90 to 150),*** (The symbol “***” indicates a value in the range of greater than 150 to 200)
"O=C(O)CC[C@H]1CN(S(=O)(=O)c2cccc(C(F)(F)F)c2)c2cc(-c3cccc(C4CC4)c3)ccc2O1 [Compound 4R, (S)-3-(6-(3-cyclopropylphenyl)-4-((3-(trifluoromethyl)phenyl)-sulfonyl)-3,4-dihydro-2H-benzo[b][1,4]oxazin-2-yl)propanoic acid]",< 500,< 500,**** (The symbol “****” indicates a value greater than 200),**** (The symbol “****” indicates a value greater than 200)
"O=C(O)CC[C@H]1CN(S(=O)(=O)c2cccc(C(F)(F)F)c2)c2cc(-c3cccc(OC(F)F)c3)ccc2O1 [Compound 4T, (S)-3-(6-(3-(difluoromethoxy)-phenyl)-4-((3-(trifluoromethyl)-phenyl)sulfonyl)-3,4-dihydro-2H-benzo[b][1,4]oxazin-2-yl)propanoic acid]",< 500,< 500,**** (The symbol “****” indicates a value greater than 200),**** (The symbol “****” indicates a value greater than 200)

# Continued, in another order:
EC50 [1] [nM],EC50 [2] [nM],Compound,Gal4-RORγ Assay Max Response [1],TR-FRET Assay Max Response [2]
> 10000,500 to 5000,"Cn1cncc1-c1ccc2c(c1)N(S(=O)(=O)c1cccc(C(F)(F)F)c1)C[C@H](CCC(=O)O)O2 [Compound 4K, (S)-3-(6-(1-methyl-1H-imidazol-5-yl)-4-((3-(trifluoromethyl)-phenyl)sulfonyl)-3,4-dihydro-2H-benzo[b][1,4]oxazin-2-yl)propanoic acid]",–,**** (The symbol “****” indicates a value greater than 200)
> 10000,> 10000,"Cn1ccnc1-c1ccc2c(c1)N(S(=O)(=O)c1cccc(C(F)(F)F)c1)C[C@H](CCC(=O)O)O2 [Compound 4L, (S)-3-(6-(1-methyl-1H-imidazol-2-yl)-4-((3-(trifluoromethyl)-phenyl)sulfonyl)-3,4-dihydro-2H-benzo[b][1,4]oxazin-2-yl)propanoic acid]",–,**** (The symbol “****” indicates a value greater than 200)
> 10000,< 500,"Cn1cnc(-c2ccc3c(c2)N(S(=O)(=O)c2cccc(C(F)(F)F)c2)C[C@H](CCC(=O)O)O3)n1 [Compound 4M, (S)-3-(6-(1-methyl-1H-1,2,4-triazol-3-yl)-4-((3-(trifluoro-methyl)phenyl)sulfonyl)-3,4-dihydro-2H-benzo[b][1,4]-oxazin-2-yl)propanoic acid]",* (The symbol “*” indicates a value in the range of 25 to 90),**** (The symbol “****” indicates a value greater than 200)
5000 to 10000,< 500,"O=C(O)CC[C@H]1CN(S(=O)(=O)c2cccc(C(F)(F)F)c2)c2cc(-c3cccc4nccn34)ccc2O1 [Compound 4P, (S)-3-(6-(imidazo[1,2-a]pyridin-5-yl)-4-((3-(trifluoromethyl)-phenyl)sulfonyl)-3,4-dihydro-2H-benzo[b][1,4]oxazin-2-yl)propanoic acid]",** (The symbol “**” indicates a value in the range of greater than 90 to 150),** (The symbol “**” indicates a value in the range of greater than 90 to 150)
> 10000,500 to 5000,"Cn1cnc(-c2ccc3c(c2)N(S(=O)(=O)c2cccc(C(F)(F)F)c2)C[C@H](CCC(=O)O)O3)c1 [Compound 4Q, (S)-3-(6-(1-methyl-1H-imidazol-4-yl)-4-((3-(trifluoromethyl)-phenyl)sulfonyl)-3,4-dihydro-2H-benzo[b][1,4]oxazin-2-yl)propanoic acid]",–,** (The symbol “**” indicates a value in the range of greater than 90 to 150)
500 to 5000,< 500,"Cc1cccc(-c2ccc3c(c2)N(S(=O)(=O)c2cccc(C(F)(F)F)c2)C[C@H](CCC(=O)O)O3)n1 [Compound 4S, (S)-3-(6-(6-methylpyridin-2-yl)-4-((3-(trifluoromethyl)phenyl)-sulfonyl)-3,4-dihydro-2H-benzo[b][1,4]oxazin-2-yl)propanoic acid]",**** (The symbol “****” indicates a value greater than 200),**** (The symbol “****” indicates a value greater than 200)
